Source: PubChem BioAssay (NCI)
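Protocol summary: plate cells (96-well), add compound at 5 concentrations, incubate 48 h, interpolate endpoints linearly. GI50 is the concentration that inhibits growth by half. TGI denotes the concentration required for complete inhibition of growth.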

What was measured:
Experiment in all cases: NCI anticancer screen, dose series, 48 h
HCT-15 colon = test system: HCT-15 colon
SN12C renal = test system: SN12C renal
NCI-H226 lung = test system: NCI-H226 lung
UACC-62 melanoma = test system: UACC-62 melanoma
HCT-116 colon = test system: HCT-116 colon
SK-MEL-2 melanoma = test system: SK-MEL-2 melanoma
SNB-75 CNS = test system: SNB-75 CNS
CCRF-CEM leukemia = test system: CCRF-CEM leukemia
T-47D breast = test system: T-47D breast
DU-145 prostate = test system: DU-145 prostate

SMILES | TGI (HCT-15 colon) [µM] | TGI (SN12C renal) [µM] | TGI (NCI-H226 lung) [µM] | TGI (UACC-62 melanoma) [µM] | TGI (HCT-116 colon) [µM] | TGI (SK-MEL-2 melanoma) [µM] | TGI (SNB-75 CNS) [µM] | TGI (CCRF-CEM leukemia) [µM] | TGI (T-47D breast) [µM] | TGI (DU-145 prostate) [µM] | GI50 (HCT-15 colon) [nM] | GI50 (SN12C renal) [nM] | GI50 (UACC-62 melanoma) [nM] | GI50 (HCT-116 colon) [nM] | GI50 (SK-MEL-2 melanoma) [µM] | GI50 (CCRF-CEM leukemia) [µM] | GI50 (T-47D breast) [µM] | GI50 (DU-145 prostate) [nM]
Cc1c(C)c2c(c(N)c1C#N)C(=O)N(O)C2=O | > 100 | > 100 | > 100 | > 100 | > 100 | > 100 | > 100 | > 100 | > 100 | > 100 | – | – | – | – | – | – | – | –
CC(C)Oc1c(C2(c3ccccc3)SCCCS2)c(=O)c1=O | > 100 | > 100 | > 100 | > 100 | > 100 | > 100 | > 100 | > 100 | > 100 | > 100 | – | – | – | – | – | – | – | –
Cc1ccc(/C=C2\Sc3scc(-c4ccccc4)[n+]3C2=O)cc1 | 50.8 | > 54.2 | > 100 | 45.6 | > 52.1 | > 89.1 | > 58.9 | 32.9 | > 100 | > 65.9 | – | – | – | – | – | – | – | –
COC(=O)C1(NC(=O)C(Cc2ccccc2)N(C(=O)OC(C)(C)C)C(=O)OC(C)(C)C)CCCC1 (configuration not stated) | > 100 | > 100 | > 100 | > 100 | > 100 | > 100 | > 100 | > 100 | > 100 | > 100 | – | – | – | – | – | – | – | –
Cc1cccc(C2ON=C(c3ccccc3)N2C23CC4CC(CC(C4)C2)C3)c1 (configuration not stated) | > 10 | > 10 | > 10 | > 10 | > 10 | > 10 | > 10 | > 10 | > 10 | > 10 | – | – | – | – | – | – | – | –
O=c1[nH]/c(=C/c2ccc3c(c2)OCO3)c(=O)[nH]/c1=C/c1ccc2c(c1)OCO2 | > 10 | > 10 | > 10 | > 10 | > 10 | > 10 | > 10 | > 10 | > 10 | > 10 | – | – | – | – | – | – | – | –
C#CC[C@@H]1C(=O)N(Cc2ccc(OC)cc2)[C@@H](C(C)C)C(=O)N1Cc1ccc(OC)cc1 | > 100 | > 100 | > 100 | > 100 | > 100 | 55.1 | 95 | 36.2 | 51.1 | > 100 | – | – | – | – | – | – | – | –
CC(C)=CCCC(C)(OC1OC(CO)C(O)C(O)C1O)C1CCC2(C)C1C(O)CC1C3(C)CCC(O)C(C)(C)C3C(OC3OC(CO)C(O)C(O)C3OC3OC(C)C(O)C(O)C3O)CC12C (configuration not stated) (tested in a mixture with another compound) | > 75 | > 75 | > 75 | > 75 | > 75 | > 75 | > 75 | > 75 | > 75 | > 75 | – | – | – | – | – | – | – | –
CC1=NN=C(C)C1N=Nc1ccc2nc(C)[nH]c2c1 | > 100 | > 100 | 34.8 | > 79.8 | > 72.5 | 36.3 | 64.4 | > 100 | 54.8 | > 100 | – | – | – | – | – | – | – | –
CNC(=O)c1n[nH]n(C2CCCCC2)c1=S | > 100 | > 100 | > 100 | > 100 | > 100 | > 100 | > 100 | > 100 | > 100 | > 100 | – | – | – | – | – | – | – | –
CCOC(=O)c1c[nH]c(C(=O)OCC)c1-c1cccn1-c1ccccc1 | > 100 | 69.2 | 98.8 | 38.9 | 30.3 | 35.5 | 52.2 | 52.2 | > 100 | > 100 | – | – | – | – | – | – | – | –
COc1ccc(-n2c(CCC(=O)O)nc3c2C(=O)c2ccccc2C3=O)cc1 | > 100 | > 100 | > 100 | > 100 | > 100 | > 100 | > 100 | > 100 | > 100 | > 100 | – | – | – | – | – | – | – | –
CCOC(=O)C(NC(=O)OCc1ccccc1)C(=O)O (configuration not stated) | > 100 | > 100 | > 100 | > 100 | > 100 | > 100 | > 100 | > 100 | > 100 | > 100 | – | – | – | – | – | – | – | –
Brc1ccc(C2C3CSc4ccccc4C3=NN2c2ccccc2)cc1 (configuration not stated) | > 100 | > 100 | > 100 | > 100 | > 100 | > 100 | > 100 | > 100 | 86.3 | > 100 | – | – | – | – | – | – | – | –
NS(=O)(=O)c1ccc(NC(=O)N/N=C/c2ccccc2O)cc1 | > 100 | > 100 | > 100 | > 100 | > 100 | > 100 | > 100 | > 100 | > 100 | > 100 | – | – | – | – | – | – | – | –
COC1(CC[C@@H](C)COC2OC(CO)C(O)C(O)C2O)O[C@H]2C[C@H]3[C@@H]4CC=C5C[C@@H](OC6OC(CO)C(OC7OC(C)C(O)C(O)C7O)C(O)C6OC6OC(C)C(O)C(O)C6O)CC[C@]5(C)[C@H]4CC[C@]3(C)[C@H]2[C@@H]1C (some centres not stated) | 3.66 | – | 15.3 | 16 | 10.4 | 8.5 | 3.37 | 20.2 | 10.9 | 4.17 | 1720 | 2870 | 2310 | 1960 | 3.26 | 7.6 | 4.08 | 1920
C[C@@H](CC(O)C(O)C(C)(C)O)C1CCC23CC12CCC1[C@@]2(C)CCC(O)C(C)(C)C2CC(OC2OC(CO)C(O)C(O)C2O)[C@]13C (some centres not stated) | > 10 | > 10 | > 10 | > 10 | > 10 | > 10 | > 10 | > 10 | > 10 | > 10 | – | – | – | – | – | – | – | –
CC(C)(O)/C1=C/C=C/CCCCCCCCCC1 | > 100 | > 100 | > 100 | > 100 | > 100 | > 100 | 2.85 | > 100 | > 100 | > 100 | – | – | – | – | – | – | – | –
CC(CSC(=N)N)C(N)=O (configuration not stated) | > 100 | > 100 | > 100 | > 100 | > 100 | > 100 | > 100 | > 100 | > 100 | > 100 | – | – | – | – | – | – | – | –
COC(=O)C(CC(C)C)NC(=O)C(NC(=O)c1ccc(-c2ccc(Cl)cc2Cl)o1)C(C)C (configuration not stated) | 75.6 | 39.2 | > 100 | 44.8 | 29.2 | 63.2 | > 100 | 33.2 | > 100 | 74.4 | – | – | – | – | – | – | – | –
COc1ccc(C(O)/C(=N/N)c2nc3ccc(Cl)cc3[nH]c2=O)cc1 (configuration not stated) | > 100 | > 100 | > 100 | > 100 | > 100 | > 100 | > 100 | > 100 | > 100 | > 100 | – | – | – | – | – | – | – | –
O=C1Oc2ccccc2C1C/C(=N\Nc1ccccc1)c1ccccc1O (configuration not stated) | > 100 | > 100 | > 100 | > 100 | > 100 | > 100 | > 100 | > 100 | 81.8 | > 100 | – | – | – | – | – | – | – | –
COc1ccc(/C=c2\c(=O)[nH]c3nc4ccccc4c(=O)n23)cc1 | > 100 | > 100 | > 100 | > 100 | > 100 | > 100 | > 100 | > 100 | > 100 | > 100 | – | – | – | – | – | – | – | –
CC(=O)CCCCn1c(=O)c2c(nc(Br)n2C)n(C)c1=O | > 100 | > 100 | > 100 | > 100 | > 100 | > 100 | > 100 | > 100 | > 100 | > 100 | – | – | – | – | – | – | – | –
C[C@]12C=CC(=O)C=C1CC[C@@H]1[C@@H]2CC[C@@]2(C)[C@H]1CC[C@]2(O)C(N)=O | > 100 | > 100 | > 100 | > 100 | > 100 | > 100 | > 100 | > 100 | > 100 | > 100 | – | – | – | – | – | – | – | –
Clc1ccc(Cl)c(N=Nc2cc3c4c(c2)CCN4CCC3)c1 | > 10 | > 10 | > 10 | > 10 | > 10 | > 10 | > 10 | > 10 | > 10 | > 10 | – | – | – | – | – | – | – | –
O[C@]12C=C(c3nccc4c3[nH]c3ccccc34)[C@@H]3CCN(CCCC/C=C\CC1)C[C@@]31CC3/C=C\CCCCN3[C@H]12 (some centres not stated) | 1.02 | 2.84 | 5.2 | 0.159 | 0.647 | 0.534 | 2.88 | > 29.6 | 4.67 | 2.86 | – | – | – | – | – | – | – | –
CC(C)(C)OC(=O)NC1CCCC1C(=O)C1=CCCC1 (configuration not stated) | > 100 | > 100 | > 100 | > 100 | > 100 | > 100 | > 100 | > 100 | > 100 | > 100 | – | – | – | – | – | – | – | –
COc1nc(N=P(c2ccccc2)(c2ccccc2)c2ccccc2)cc(=O)n1C | > 100 | > 100 | > 100 | > 100 | > 100 | > 100 | > 100 | > 100 | > 100 | > 100 | – | – | – | – | – | – | – | –
